Assay results: the CheMixHub viscosity set

Experiment: xn = mol fraction of the nth substance listed

Cc1ccc(NC(=O)NCCCCCCCCCCCCCCC(C)C)cc1NC(=O)NCCCCCCCCCCCCCCC(C)C + CCCCC
Settings | viscosity [mPa·s]
293.15 K, 100 kPa, x1 = 0.0001 | 2

Cc1ccc([S@@](=O)O[C@@H]2C[C@H](C)CC[C@H]2C(C)C)cc1 + CCCCO
298 K, 101.3 kPa
Settings | viscosity [mPa·s]
x1 = 0.00223 | 2.53
x1 = 0.0043 | 2.548
x1 = 0.00647 | 2.573
x1 = 0.0087 | 2.586
x1 = 0.01163 | 2.628

CC(C)CCO + OCc1ccccc1
viscosity [mPa·s], 101 kPa
Settings | x1 = 0.0955 | x1 = 0.1908 | x1 = 0.2853 | x1 = 0.3812 | x1 = 0.4814 | x1 = 0.5847 | x1 = 0.6842 | x1 = 0.7879 | x1 = 0.8921
293.15 K | 6.28 | 6.27 | 6.26 | 6.18 | 6.07 | 5.86 | 5.58 | 5.23 | 4.86
298.15 K | 5.53 | 5.51 | 5.49 | 5.42 | 5.31 | 5.11 | 4.85 | 4.53 | 4.19
303.15 K | 4.64 | 4.63 | 4.62 | 4.58 | 4.49 | 4.37 | 4.19 | 3.94 | 3.64
308.15 K | 3.96 | 3.92 | 3.89 | 3.86 | 3.81 | 3.7 | 3.53 | 3.28 | 3
313.15 K | 3.48 | 3.44 | 3.39 | 3.36 | 3.31 | 3.22 | 3.1 | 2.95 | 2.71
318.15 K | 3.05 | 3 | 2.95 | 2.89 | 2.83 | 2.74 | 2.63 | 2.49 | 2.3

C=C(C)C(=O)OCCO + O=C1CCCCC1
viscosity [mPa·s], 101 kPa
Settings | x2 = 0.1 | x2 = 0.2 | x2 = 0.3 | x2 = 0.4 | x2 = 0.5 | x2 = 0.6 | x2 = 0.6999 | x2 = 0.8 | x2 = 0.9
298.15 K | 5.035 | 4.22 | 3.579 | 3.213 | 2.928 | 2.661 | 2.319 | 2.089 | 2.06
308.15 K | 3.747 | 3.184 | 2.768 | 2.512 | 2.282 | 2.045 | 1.856 | 1.707 | 1.695
318.15 K | 2.881 | 2.474 | 2.2 | 2.012 | 1.853 | 1.678 | 1.54 | 1.439 | 1.421

CNCCO + CS(C)=O
viscosity [mPa·s], 101.3 kPa
Settings | x1 = 0.1038 | x1 = 0.2066 | x1 = 0.3084 | x1 = 0.4095 | x1 = 0.5101 | x1 = 0.6095 | x1 = 0.7084 | x1 = 0.8064 | x1 = 0.9035
293.15 K | 2.286 | 2.433 | 2.768 | 3.144 | 3.804 | 4.512 | 5.755 | 7.432 | 9.786
298.15 K | 2.054 | 2.173 | 2.45 | 2.754 | 3.293 | 3.852 | 4.836 | 6.143 | 7.947
303.15 K | 1.858 | 1.956 | 2.186 | 2.435 | 2.877 | 3.327 | 4.116 | 5.151 | 6.549
308.15 K | 1.691 | 1.771 | 1.964 | 2.168 | 2.537 | 2.905 | 3.542 | 4.368 | 5.476
313.15 K | 1.547 | 1.613 | 1.776 | 1.946 | 2.254 | 2.555 | 3.077 | 3.745 | 4.627
318.15 K | 1.419 | 1.481 | 1.615 | 1.755 | 2.016 | 2.264 | 2.697 | 3.241 | 3.954
323.15 K | 1.309 | 1.361 | 1.469 | 1.594 | 1.815 | 2.044 | 2.383 | 2.83 | 3.41
